Data from patent US20240132450A1, “MODULATORS OF G PROTEIN-COUPLED RECEPTOR 88” (ACADIA Pharmaceuticals Inc., priority 2020, published 2024).
Read-outs that look alike come from different tables or passages of the source.

How the values were obtained:
[1] = Hepatocyte stability (mouse); type: in vitro ADME; details: test compound 3 μM, 60 min; for hepatocyte CLint at 3 μM: mouse, cryopreserved pooled hepatocytes in suspension, read-out: Mouse heps Clint; for Mouse heps Clint: mouse cryopreserved hepatocytes
Experimental: (iii) Hepatocyte Stability (Human, Mouse, Rat or Dog)
Test compound (3 μM) is incubated with cryopreserved hepatocytes in suspension. Samples are removed at 6 time points over the course of a 60 min experiment and test compound is analysed by LC-MS/MS. An intrinsic clearance value (CLint) with standard error and half-life (t %) are calculated. Cryopreserved pooled hepatocytes are stored in liquid nitrogen prior to use. […] The final incubation volume is 500 μL. A control incubation is included for each compound tested where lysed cells are added instead of viable cells. Two control compounds are included with each species.
The reactions are stopped by transferring 50 μL of incubate to 100 μL methanol containing internal standard at the appropriate time points. The control (lysed cells) is incubated for 60 min only. The termination plates are centrifuged at 2500 rpm at 4° C. for 30 min to precipitate the protein. Following protein precipitation, the sample supernatants are combined in cassettes of up to 4 compounds and analysed using generic LC-MS/MS conditions. From a plot of In peak area ratio (compound peak area/internal standard peak area) against time, the gradient of the line is determined. Subsequently, half-life (t %) and intrinsic clearance (CLint) are calculated using the equations below: […]

hGPR88 receptor = hGPR88 receptor (Homo sapiens, UniProt Q9GZN0); experiment: hGPR88-HEK cAMP accumulation assay; details: HEK-293 cells expressing human recombinant GPR88, forskolin 200 nM, High/Medium/Low bands
Experimental: Biological Assay 1: hGPR88-HEK cAMP Accumulation Assay
Cryopreserved vials of HEK-293 cells expressing human recombinant GPR88 receptor are re-suspended in KRH assay buffer and 5 μl of cell solution is suspended in test wells at a seeding density of 2500±500 cells per well using the multidrop to provide a final reaction volume of 10 μl containing 0.5% DMSO. Assay plate is incubated for 30 min at room temperature and the reaction is terminated by addition of 5 μl of each of the cAMP detection reagents of the cAMP Gi kit (Cisbio Bioassays, 62AM9PEJ), diluted in cell lysis buffer, to each well using the multidrop in the following order: first the cAMP-d2 conjugate, then the anti-cAMP cryptate conjugate. […] Raw counts were converted to cAMP concentrations via a standard curve before EC50 and Emax determination. Data is expressed as % decrease in forskolin stimulated cAMP compared to cells treated with vehicle alone in the same buffer and on the same plate.

[2] = target: T1, dopamine uptake transporter (rat DAT) (Rattus norvegicus, UniProt P23977); experiment: Dopamine transporter uptake assay; type: biochemical; details: rat striatum synaptosomes, [3H]dopamine, 10 µM
T1 construct: is determined in rat striatum synaptosomes following [^3H]dopamine scintillation counting; from tissue; host or cells: rat striatum synaptosomes

[3] = read-out: GRP88 agonist activity (EC50)

Sequence of hGPR88 receptor (Q9GZN0 whole entry): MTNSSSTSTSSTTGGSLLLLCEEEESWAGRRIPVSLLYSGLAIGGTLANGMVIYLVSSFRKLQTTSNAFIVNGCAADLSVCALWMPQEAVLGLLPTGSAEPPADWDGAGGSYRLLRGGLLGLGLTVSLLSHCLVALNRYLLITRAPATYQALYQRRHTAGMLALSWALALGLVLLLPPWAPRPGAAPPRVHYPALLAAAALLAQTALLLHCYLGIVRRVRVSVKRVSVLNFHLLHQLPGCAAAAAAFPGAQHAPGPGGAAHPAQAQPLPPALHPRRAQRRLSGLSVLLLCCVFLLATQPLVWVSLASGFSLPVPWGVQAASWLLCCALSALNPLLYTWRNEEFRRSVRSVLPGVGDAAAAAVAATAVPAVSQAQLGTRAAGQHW
T1 sequence (P23977 whole entry): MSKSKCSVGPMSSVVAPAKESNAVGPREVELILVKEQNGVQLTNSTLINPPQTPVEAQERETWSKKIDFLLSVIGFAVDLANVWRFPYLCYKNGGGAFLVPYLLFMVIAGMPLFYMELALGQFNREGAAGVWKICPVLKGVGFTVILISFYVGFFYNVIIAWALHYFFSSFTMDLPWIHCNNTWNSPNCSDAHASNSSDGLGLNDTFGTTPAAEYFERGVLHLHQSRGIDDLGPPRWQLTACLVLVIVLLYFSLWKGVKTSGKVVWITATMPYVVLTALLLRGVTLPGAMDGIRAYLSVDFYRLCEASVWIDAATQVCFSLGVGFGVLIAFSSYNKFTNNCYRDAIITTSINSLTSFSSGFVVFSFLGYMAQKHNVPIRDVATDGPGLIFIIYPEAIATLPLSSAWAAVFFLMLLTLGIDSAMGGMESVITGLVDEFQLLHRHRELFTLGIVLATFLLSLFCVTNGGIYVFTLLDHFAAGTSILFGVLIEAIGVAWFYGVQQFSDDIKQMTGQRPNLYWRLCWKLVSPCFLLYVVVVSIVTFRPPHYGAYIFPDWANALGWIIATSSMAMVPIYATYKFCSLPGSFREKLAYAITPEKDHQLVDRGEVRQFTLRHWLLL

SMILES	hepatocyte CLint at 3 μM [1] [µL/min/1e6 cells]	EC50 (hGPR88 receptor; GRP88 agonist activity (EC50)) [nM]	further results
CCCc1ccc(C23CC(NC(=O)C4CC4c4ccccn4)(C2)C3)cc1 (racemic) [Example 8, (rac-trans)-N-(3-(4-propylphenyl)bicyclo[1.1.1]pentan-1-yl)-2-(pyridin-2-yl)cyclopropane-1-carboxamide]	55	< 1000	–
COCc1ccc(-c2ccc(NC(=O)C3CC3c3ccccn3)cc2)cc1 (racemic) [Example 18, N-(4′-(methoxymethyl)-[1,1′-biphenyl]-4-yl)-2-(pyridin-2-yl)cyclopropane-1-carboxamide]	–	–	Inhibition of dopamine uptake transporter (% inhibition at 10 μM compound) [2]: 0 % inhibition
CCOc1ccc(-c2ccc(NC(=O)C3CC3c3ccccn3)cc2)cn1 (racemic) [Example 36, (rac-trans)-N-(4-(6-ethoxypyridin-3-yl)phenyl)-2-(pyridin-2-yl)cyclopropane-1-carboxamide]	–	1000 to 5000	Mouse heps Clint [1]: 80 μL/min/10^6 cells
COCc1ccc(-c2ccc(NC(=O)C3CC3c3ccccn3)cc2)cc1 (single isomer, unassigned) [Example 18, N-(4′-(methoxymethyl)-[1,1′-biphenyl]-4-yl)-2-(pyridin-2-yl)cyclopropane-1-carboxamide]	70	< 1000	–
COCc1ccc(-c2ccc(NC(=O)C(C)(C)Oc3ccccc3)cc2)cc1 [Example 4, N-(4′-(methoxymethyl)-[1,1′-biphenyl]-4-yl)-2-methyl-2-phenoxypropanamide]	51	< 1000	–
COCc1ccc(-c2ccc(NC(=O)C(C)(C)Oc3ccccn3)cc2)cc1 [Example 7, N-(4′-(methoxymethyl)-[1,1′-biphenyl]-4-yl)-2-methyl-2-(pyridin-2-yloxy)propanamide]	46	1000 to 5000	–
CCCc1ccc(C23CC(NC(=O)C(C)(C)Oc4ccc(F)cc4)(C2)C3)cc1 [Example 9, 2-(4-fluorophenoxy)-2-methyl-N-(3-(4-propylphenyl)bicyclo[1.1.1]pentan-1-yl)propenamide]	39	1000 to 5000	–
COCc1ccc(-c2ccc(N(C)C(=O)C(C)(C)Oc3ccc(F)cc3)cc2)cc1 [Example 13, 2-(4-fluorophenoxy)-N-(4′-(methoxymethyl)-[1,1′-biphenyl]-4-yl)-N,2-dimethylpropanamide]	90	1000 to 5000	–
CN(C)Cc1ccc(-c2ccc(NC(=O)C(C)(C)Oc3ccc(F)cc3)cc2)cc1 [Example 17, N-(4′-((dimethylamino)methyl)-[1,1′-biphenyl]-4-yl)-2-(4-fluorophenoxy)-2-methylpropanamide]	37	1000 to 5000	–
COCc1ccc(-c2ccc(NC(=O)C3(Oc4ccc(F)cc4)CC3)cc2)cc1 [Example 53, 1-(4-fluorophenoxy)-N-(4′-(methoxymethyl)-[1,1′-biphenyl]-4-yl)cyclopropane-1-carboxamide]	71	< 1000	–
CCOc1ccc(OC(C)(C)C(=O)Nc2ccc(-c3ccc(COC)cc3)cc2)cc1 [Example 70, 2-(4-ethoxyphenoxy)-N-(4′-(methoxymethyl)-[1,1′-biphenyl]-4-yl)-2-methylpropanamide]	74	< 1000	–
COC(C)c1ccc(-c2ccc(NC(=O)C(C)(C)Oc3ccc(F)cc3)cc2)cc1 (stereo not shown) [Example 119, 2-(4-fluorophenoxy)-N-(4′-(1-methoxyethyl)-[1,1′-biphenyl]-4-yl)-2-methylpropanamide]	–	1000 to 5000	–
COCc1ccc(-c2ccc(NC(=O)C3(Oc4ccc(F)cc4)CCC3)cc2)cc1 [Example 127, 1-(4-fluorophenoxy)-N-(4′-(methoxymethyl)-[1,1′-biphenyl]-4-yl)cyclobutane-1-carboxamide]	–	< 1000	–
COCc1ccc(-c2ccc(NC(=O)C(C)(C)Oc3ccc(C)cc3)cc2)cc1 [Example 128, N-(4′-(methoxymethyl)-[1,1-biphenyl]-4-yl)-2-methyl-2-(p-tolyloxy) propenamide]	–	< 1000	–
O=C(Nc1ccc(-c2ccc(CN3CCOCC3)cc2)cc1)C1(Oc2ccc(F)cc2)CC1 [Example 129, 1-(4-fluorophenoxy)-N-(4′-(morpholinomethyl)-[1,1′-biphenyl]-4-yl)cyclo propane-1-carboxamide]	–	< 1000	–
CC(C)OCc1ccc(-c2ccc(NC(=O)C(C)(C)Oc3ccc(F)cc3)cc2)cc1 [Example 131, 2-(4-fluorophenoxy)-N-(4′-(isopropoxymethyl)-[1,1′-biphenyl]-4-yl)-2-methylpropanamide]	–	> 5000	–
COCc1ccc(-c2ccc(NC(=O)C(C)(C)Oc3ccc(F)cn3)cc2)cc1 [Example 138, 2-((5-fluoropyridin-2-yl)oxy)-N-(4′-(methoxymethyl)-[1,1′-biphenyl]-4-yl)-2-methylpropanamide]	–	1000 to 5000	–
CCOc1ccc(-c2ccc(NC(=O)C(C)(C)Oc3ccccn3)cc2)cn1 [Example 140, N-(4-(6-ethoxypyridin-3-yl)phenyl)-2-methyl-2-(pyridin-2-yloxy)propanamide]	–	1000 to 5000	–
COCc1ccc(-c2ccc(N(CC(C)(C)O)C(=O)C3CC3c3ccccn3)cc2)cc1 (stereo not shown) [Example 142, N-(2-hydroxy-2-methylpropyl)-N-(4′-(methoxymethyl)-[1,1′-biphenyl]-4-yl)-2-(pyridin-2-yl)cyclopropane-1-carboxamide]	–	–	EC50 (hGPR88 receptor; [3]): > 5000 nM

The next lines start with results.

hepatocyte CLint at 3 μM [1] [µL/min/1e6 cells]	EC50 (hGPR88 receptor; GRP88 agonist activity (EC50)) [nM]	SMILES	further results
–	< 1000	CCCc1ccc(C23CC(NC(=O)C4CC4c4ccccn4)(C2)C3)cc1 (racemic) [Example 35, (rac-trans)-N-(3-(4-propylphenyl)bicyclo[1.1.1]pentan-1-yl)-2-(pyridin-2-yl)cyclopropane-1-carboxamide]	Mouse heps Clint [1]: 49 μL/min/10^6 cells
30	–	COCc1ccc(-c2ccc(NC(=O)C3CC3c3ccccn3)nc2)cc1 (racemic) [Example 121, (rac-trans)-N-(5-(4-(methoxymethyl)phenyl)pyridin-2-yl)-2-(pyridin-2-yl)cyclopropane-1-carboxamide]	EC50 (hGPR88 receptor; [3]): 1000 to 5000 nM
30	< 1000	COCc1ccc(-c2ccc(NC(=O)C(C)(C)Oc3ccc(Cl)cc3)cc2)cc1 [Example 3]	–
41	< 1000	CC(C)(Oc1ccc(F)cc1)C(=O)Nc1ccc(-c2ccc(CN3CCOCC3)cc2)cc1 [Example 25, 2-(4-fluorophenoxy)-2-methyl-N-(4′-(morpholinomethyl)-[1,1′-biphenyl]-4-yl)propenamide]	–
65	1000 to 5000	COCc1ccc(-c2ccc3c(c2)CCN3C(=O)C(C)(C)Oc2ccc(F)cc2)cc1 [Example 32, 2-(4-fluorophenoxy)-1-(5-(4-(methoxymethyl)phenyl)indolin-1-yl)-2-methylpropan-1-one]	–
37	< 1000	COCc1ccc(-c2ccc(NC(=O)C(C)(C)Oc3ccc(C#N)cc3)cc2)cc1 [Example 68, 2-(4-cyanophenoxy)-N-(4′-(methoxymethyl)-[1,1′-biphenyl]-4-yl)-2-methylpropanamide]	–
47	< 1000	CC(C)Oc1ccc(-c2ccc(NC(=O)C(C)(C)Oc3ccc(F)cc3)cc2)cn1 [Example 92, 2-(4-fluorophenoxy)-N-(4-(6-isopropoxypyridin-3-yl)phenyl)-2-methylpropanamide]	–
–	< 1000	CC(C)(Oc1ccc(C#N)cc1)C(=O)Nc1ccc(-c2ccc(CN3CCOCC3)cc2)cc1 [Example 124, 2-(4-cyanophenoxy)-2-methyl-N-(4′-(morpholinomethyl)-[1,1′-biphenyl]-4-yl)propenamide]	–
–	> 5000	CN(C)c1ccc(-c2ccc(NC(=O)C3CC3c3ccccn3)cc2)cn1 (stereo not shown) [Example 125, N-(4-(6-(dimethylamino)pyridin-3-yl)phenyl)-2-(pyridin-2-yl)cyclopropane-1-carboxamide]	–
–	> 5000	CN(C)c1ncc(-c2ccc(NC(=O)C3CC3c3ccccn3)cc2)cn1 (stereo not shown) [Example 126, N-(4-(2-(dimethylamino)pyrimidin-5-yl)phenyl)-2-(pyridin-2-yl)cyclopropane-1-carboxamide]	–
–	1000 to 5000	CC(C)(Oc1ccc(F)cc1)C(=O)Nc1ccc(-c2ccc(COC3CC3)cc2)cc1 [Example 132, N-(4′-(cyclopropoxymethyl)-[1,1′-biphenyl]-4-yl)-2-(4-fluorophenoxy)-2-methylpropanamide]	–
–	> 5000	COCc1ccc(-c2ccc(N(CCC#N)C(=O)C(C)(C)Oc3ccc(F)cc3)cc2)cc1 [Example 139, N-(2-cyanoethyl)-2-(4-fluorophenoxy)-N-(4′-(methoxymethyl)-[1,1′-biphenyl]-4-yl)-2-methylpropanamide]	–
–	> 5000	COCc1ccc(-c2ccc(N(CC(C)(C)O)C(=O)C3CC3c3ccccn3)cc2)cc1 (stereo not shown) [Example 141, N-(2-hydroxy-2-methylpropyl)-N-(4′-(methoxymethyl)-[1,1′-biphenyl]-4-yl)-2-(pyridin-2-yl)cyclopropane-1-carboxamide]	–
